Experimental findings from patent US20250084056A1, “SUBSTITUTED OXOISOINDOLINYL PIPERIDINE-2,6-DIONE COMPOUNDS” (BRISTOL-MYERS SQUIBB COMPANY, priority 2023, published 2025) are described below.

Usually IC50 stands for the concentration needed to halve the response being measured. Read a high IC50 as weaker potency. As usually defined, the DC50 is the concentration giving 50% degradation. Higher therefore signals degradation only at high concentration. For orientation: Dmax means the greatest extent of degradation seen.

Assay type in all cases: cell-based
One test concerns Phospho-Rb (Ser807/811). The experiment in a line: Phospho-Retinoblastoma (pRB) Cellular Assay. To be noted: Homo sapiens, OVCAR-3, NIH OVCAR3 cells, 24 hours; for IC50: concentration giving 50% response; for Emax: maximum response, reference compound at 10 μM = 100%, read-out: pRB Ymax. An outline of the steps:
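OVCAR3 cells seeded overnight, then dosed with serial dilutions for 24 h at 37° C. Lysed with kit mix plus phosphatase inhibitor, ≥4 h at room temperature, read on EnVision; 100% response set by reference compound at 10 μM, giving IC50 and Ymax.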

The target of another test is GSPT1 (Homo sapiens, UniProt P15170+Q96SW2). The experiment in a line: GSPT1 Cellular Degradation Assay (DF15-GSPT1-ePL). Also noted: expressed in transfected cells. The conditions noted are these: DF15-GSPT1-ePL cells, 20 hours. In a few lines: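 Human DF15 cells co-expressing a GSPT1–ePL fusion were treated with compound in RPMI 1640/10% FBS for 20 h at 37 °C. GSPT1 level was read by enzyme-fragment-complementation luminescence after 60 min with detection reagent. The reference degrader at […] defined 75% response; DC50 and Dmax were reported.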
Chain of GSPT1 (P15170 whole entry, the tested form may be a part): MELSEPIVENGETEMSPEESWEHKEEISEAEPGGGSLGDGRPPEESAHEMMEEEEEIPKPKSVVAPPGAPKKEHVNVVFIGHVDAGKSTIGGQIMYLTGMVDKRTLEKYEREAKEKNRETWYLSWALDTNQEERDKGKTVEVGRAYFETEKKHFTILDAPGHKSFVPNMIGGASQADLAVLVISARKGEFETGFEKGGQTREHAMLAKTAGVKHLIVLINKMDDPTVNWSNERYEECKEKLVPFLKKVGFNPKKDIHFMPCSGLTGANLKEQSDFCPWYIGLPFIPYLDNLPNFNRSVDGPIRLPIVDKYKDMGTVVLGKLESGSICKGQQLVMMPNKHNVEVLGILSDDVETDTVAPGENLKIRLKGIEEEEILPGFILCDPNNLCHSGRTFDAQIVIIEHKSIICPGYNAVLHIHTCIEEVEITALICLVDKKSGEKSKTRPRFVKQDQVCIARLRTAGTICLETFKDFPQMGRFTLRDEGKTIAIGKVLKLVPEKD
Chain of GSPT1 (Q96SW2 whole entry, the tested form may be a part): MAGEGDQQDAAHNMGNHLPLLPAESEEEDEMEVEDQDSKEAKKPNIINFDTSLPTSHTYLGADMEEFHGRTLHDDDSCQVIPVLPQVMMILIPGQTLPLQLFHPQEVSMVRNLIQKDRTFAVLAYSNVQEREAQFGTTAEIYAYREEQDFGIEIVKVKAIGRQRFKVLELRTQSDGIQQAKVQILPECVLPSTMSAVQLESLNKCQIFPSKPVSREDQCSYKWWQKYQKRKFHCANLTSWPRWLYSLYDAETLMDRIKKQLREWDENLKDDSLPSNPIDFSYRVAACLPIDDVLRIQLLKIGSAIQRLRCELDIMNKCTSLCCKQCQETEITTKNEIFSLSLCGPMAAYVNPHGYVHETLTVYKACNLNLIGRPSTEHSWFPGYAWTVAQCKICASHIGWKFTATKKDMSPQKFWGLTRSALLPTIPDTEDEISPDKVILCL
Chain of GSPT1 (Q16531 whole entry partner, the tested form may be a part): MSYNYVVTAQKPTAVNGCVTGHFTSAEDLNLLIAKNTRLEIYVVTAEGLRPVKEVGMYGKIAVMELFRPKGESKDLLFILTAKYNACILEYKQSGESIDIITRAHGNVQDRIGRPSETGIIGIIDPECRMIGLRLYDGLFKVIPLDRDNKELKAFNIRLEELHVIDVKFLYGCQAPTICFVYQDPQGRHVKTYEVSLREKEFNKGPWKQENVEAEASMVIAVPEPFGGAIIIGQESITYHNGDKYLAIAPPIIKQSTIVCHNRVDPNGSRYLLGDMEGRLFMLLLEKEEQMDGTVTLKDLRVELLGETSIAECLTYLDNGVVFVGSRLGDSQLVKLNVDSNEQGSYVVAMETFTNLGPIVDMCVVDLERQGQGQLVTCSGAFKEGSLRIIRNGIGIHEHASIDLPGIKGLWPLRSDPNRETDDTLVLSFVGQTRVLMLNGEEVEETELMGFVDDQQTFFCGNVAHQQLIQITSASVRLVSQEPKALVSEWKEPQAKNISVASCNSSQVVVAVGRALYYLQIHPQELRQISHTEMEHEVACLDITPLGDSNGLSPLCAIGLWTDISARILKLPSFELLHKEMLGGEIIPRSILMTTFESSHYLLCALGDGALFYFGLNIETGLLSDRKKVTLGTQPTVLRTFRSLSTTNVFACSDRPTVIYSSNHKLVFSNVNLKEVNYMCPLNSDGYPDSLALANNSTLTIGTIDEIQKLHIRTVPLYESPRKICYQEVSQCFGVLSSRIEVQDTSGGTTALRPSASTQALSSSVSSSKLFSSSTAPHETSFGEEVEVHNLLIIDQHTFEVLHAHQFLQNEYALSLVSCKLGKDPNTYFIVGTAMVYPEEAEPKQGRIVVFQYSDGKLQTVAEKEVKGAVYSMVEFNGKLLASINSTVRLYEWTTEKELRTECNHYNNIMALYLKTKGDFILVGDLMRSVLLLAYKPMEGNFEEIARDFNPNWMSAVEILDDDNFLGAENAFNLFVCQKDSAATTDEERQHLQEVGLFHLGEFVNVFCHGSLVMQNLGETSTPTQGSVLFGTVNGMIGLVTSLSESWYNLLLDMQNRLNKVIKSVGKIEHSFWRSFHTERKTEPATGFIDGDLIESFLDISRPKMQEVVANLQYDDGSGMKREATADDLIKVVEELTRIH

The next test has as its target Cyclin E1 (Homo sapiens, UniProt P24864+Q96SW2). The experiment in a line: Cyclin E1 Cellular Degradation Assay (MSD). Also noted: endogenous in cells; host or cells: OVCAR3. The conditions noted are these: for DC50 / Dmax: Cyclin E1 cellular degradation; for Dmax: maximum degradation; for Ratio of GSPT1 DC50/Cyclin E1 DC50: selectivity for degradation of Cyclin E1 over GSPT1. In a few lines: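 OVCAR3 cells treated with compound for 24 h at 37 °C, lysed, and cyclin E1 measured by MSD sandwich immunoassay (rabbit capture, mouse detection anti-CCNE1). Reference degrader at […] defined 110% response; DC50 and Dmax derived from response.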

Chain of Cyclin E1 (P24864 whole entry): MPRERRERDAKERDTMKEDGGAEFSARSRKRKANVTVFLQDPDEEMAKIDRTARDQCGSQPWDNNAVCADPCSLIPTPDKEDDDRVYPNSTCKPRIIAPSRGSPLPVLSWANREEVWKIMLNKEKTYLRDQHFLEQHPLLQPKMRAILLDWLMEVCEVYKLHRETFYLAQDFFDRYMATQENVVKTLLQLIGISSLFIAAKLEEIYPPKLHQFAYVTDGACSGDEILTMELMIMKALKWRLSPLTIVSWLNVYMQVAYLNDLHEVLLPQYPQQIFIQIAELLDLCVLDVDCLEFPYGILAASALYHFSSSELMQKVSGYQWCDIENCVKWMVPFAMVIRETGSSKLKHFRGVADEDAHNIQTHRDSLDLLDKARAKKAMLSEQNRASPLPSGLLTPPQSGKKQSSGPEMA
Chain of Cyclin E1 (Q96SW2 whole entry): as the sequence (Q96SW2 whole entry, the tested form may be a part) above
Chain of Cyclin E1 (Q16531 whole entry partner): as the sequence (Q16531 whole entry partner, the tested form may be a part) above

As to `O=C1CCC(N2Cc3ccc(COC(=O)Nc4ccc(Oc5ccc(F)cc5)cc4F)c(O[C@@H]4CCCOC4)c3C2=O)C(=O)N1` (stereo partly drawn) [Example 147, [2-(2,6-dioxopiperidin-3-yl)-4-[(3R)-oxan-3-yloxy]-3-oxo-2,3-dihydro-1H-isoindol-5-yl]methyl N-[2-fluoro-4-(4-fluorophenoxy)phenyl]carbamate], in the test on Phospho-Rb (Ser807/811), half-maximal inhibition (IC50) required 43 nM and the Emax came to 137%. At GSPT1, the DC50 was above 14 µM and the Dmax was 2%. On Cyclin E1, the DC50 worked out at 12 nM, the Dmax turned out to be 110% and the “Ratio of GSPT1 DC50/Cyclin E1 DC50” value is listed as >1,121.
Consider `O=C1CCC(N2Cc3ccc(COC(=O)Nc4ccc(Oc5ccc(F)cc5F)cc4F)c(O[C@@H]4CCCOC4)c3C2=O)C(=O)N1` (stereo partly drawn) [Example 148, [2-(2,6-dioxopiperidin-3-yl)-4-[(3R)-oxan-3-yloxy]-3-oxo-2,3-dihydro-1H-isoindol-5-yl]methyl N-[4-(2,4-difluorophenoxy)-2-fluorophenyl]carbamate], for which, in the test on Phospho-Rb (Ser807/811), the half-inhibitory concentration (IC50) is 75 nM and the Emax came out at 136%. Also, at GSPT1, the DC50 is above 14 µM and the Dmax worked out at 10%. Also, on Cyclin E1, the DC50 stood at 33 nM, the Dmax was determined as 110% and the “Ratio of GSPT1 DC50/Cyclin E1 DC50” value was above 423.
On to `O=C1CCC(N2Cc3ccc(COC(=O)Nc4ccc(Oc5cc(F)cc(F)c5)cc4F)c(O[C@@H]4CCCOC4)c3C2=O)C(=O)N1` (stereo partly drawn) [Example 149, [2-(2,6-dioxopiperidin-3-yl)-4-[(3R)-oxan-3-yloxy]-3-oxo-2,3-dihydro-1H-isoindol-5-yl]methyl N-[4-(3,5-difluorophenoxy)-2-fluorophenyl]carbamate], for which, in the test on Phospho-Rb (Ser807/811), half-maximal inhibition (IC50) required 71 nM and the Emax came to 144%. Further, at GSPT1, the DC50 is above 14 µM and the Dmax was 15%. Besides, at Cyclin E1, it took 67 nM to reach half-maximal degradation (DC50), the Dmax is 109% and the “Ratio of GSPT1 DC50/Cyclin E1 DC50” value was above 209.
With `O=C1CCC(N2Cc3ccc(COC(=O)Nc4ccc(Oc5cc(F)c(F)c(F)c5)cc4F)c(O[C@@H]4CCCOC4)c3C2=O)C(=O)N1` (stereo partly drawn) [Example 150, [2-(2,6-dioxopiperidin-3-yl)-4-[(3R)-oxan-3-yloxy]-3-oxo-2,3-dihydro-1H-isoindol-5-yl]methyl N-[2-fluoro-4-(3,4,5-trifluorophenoxy)phenyl]carbamate], in the test with Phospho-Rb (Ser807/811), the midpoint of inhibition, the IC50, lay at 96 nM and the Emax amounted to 137%. Further, at GSPT1, the DC50 is above 14 µM and the Dmax amounted to 0%. Also, on Cyclin E1, the DC50 amounted to 182 nM, the Dmax came to 100% and the “Ratio of GSPT1 DC50/Cyclin E1 DC50” value was above 77.
As to `O=C1CCC(N2Cc3ccc(COC(=O)Nc4ccc(Oc5ccc(F)c(F)c5)cc4)c(OC4CCCC4)c3C2=O)C(=O)N1` (centres unmarked) [Example 151, [4-(cyclopentyloxy)-2-(2,6-dioxopiperidin-3-yl)-3-oxo-2,3-dihydro-1H-isoindol-5-yl]methyl N-[4-(3,4-difluorophenoxy)phenyl]carbamate], in the test on Phospho-Rb (Ser807/811), the IC50 amounted to 31 nM and the Emax is 113%. Besides, on GSPT1, the DC50 was above 14 µM and the Dmax was 10%. For the same compound, on Cyclin E1, the DC50 is 71 nM, the Dmax turned out to be 108% and the “Ratio of GSPT1 DC50/Cyclin E1 DC50” value is given as above 196.
On to `O=C1CCC(N2Cc3ccc(COC(=O)Nc4ccc(Oc5ccc(F)c(F)c5)cc4)c(O[C@H]4CCOC4)c3C2=O)C(=O)N1` (stereo partly drawn) [Example 152, [2-(2,6-dioxopiperidin-3-yl)-3-oxo-4-[(3S)-oxolan-3-yloxy]-2,3-dihydro-1H-isoindol-5-yl]methyl N-[4-(3,4-difluorophenoxy)phenyl]carbamate], for which, in the test on Phospho-Rb (Ser807/811), the IC50 was found to be 152 nM and the Emax worked out at 120%. For the same compound, on GSPT1, the DC50 is above 14 µM and the Dmax was 32%. Also, at Cyclin E1, the DC50 was 152 nM, the Dmax is 108% and the “Ratio of GSPT1 DC50/Cyclin E1 DC50” value is on record as above 92.
On to `O=C1CCC(N2Cc3ccc(COC(=O)Nc4ccc(Oc5ccc(F)c(F)c5)cc4)c(O[C@@H]4CCOC4)c3C2=O)C(=O)N1` (stereo partly drawn) [Example 153, [2-(2,6-dioxopiperidin-3-yl)-3-oxo-4-[(3R)-oxolan-3-yloxy]-2,3-dihydro-1H-isoindol-5-yl]methyl N-[4-(3,4-difluorophenoxy)phenyl]carbamate], for which, in the test on Phospho-Rb (Ser807/811), 37 nM corresponded to half-maximal inhibition (IC50) and the Emax came out at 124%. Also, on GSPT1, the 50% degradation concentration (DC50) is above 14 µM and the Dmax came to 19%. On Cyclin E1, the DC50 amounted to 84 nM, the Dmax amounted to 107% and the “Ratio of GSPT1 DC50/Cyclin E1 DC50” value is given as above 166.
`O=C1CCC(N2Cc3ccc(COC(=O)Nc4ccc(Oc5ccc(F)c(F)c5)cc4F)c(O[C@@H]4CCOC4)c3C2=O)C(=O)N1` (stereo partly drawn) [Example 154, [2-(2,6-dioxopiperidin-3-yl)-3-oxo-4-[(3R)-oxolan-3-yloxy]-2,3-dihydro-1H-isoindol-5-yl]methyl N-[4-(3,4-difluorophenoxy)-2-fluorophenyl]carbamate]: in the test on Phospho-Rb (Ser807/811), the IC50 came out at 225 nM and the Emax worked out at 123%. For the same compound, on GSPT1, the DC50 is above 14 µM and the Dmax came to 26%. On Cyclin E1, half-maximal degradation (DC50) was put at 147 nM, the Dmax was 100% and the “Ratio of GSPT1 DC50/Cyclin E1 DC50” value was above 95.
On to `CC(C)(O)COc1c(COC(=O)Nc2ccc(Oc3ccc(F)c(F)c3)cc2)ccc2c1C(=O)N(C1CCC(=O)NC1=O)C2` (centres unmarked) [Example 159, [2-(2,6-dioxopiperidin-3-yl)-4-(2-hydroxy-2-methylpropoxy)-3-oxo-2,3-dihydro-1H-isoindol-5-yl]methyl N-[4-(3,4-difluorophenoxy)phenyl]carbamate], for which, in the test on Phospho-Rb (Ser807/811), inhibition was half-maximal at 47 nM (IC50) and the Emax was 145%. In addition, on GSPT1, the DC50 is above 14 µM and the Dmax was 21%. At Cyclin E1, the DC50 turned out to be 15 nM, the Dmax worked out at 101% and the “Ratio of GSPT1 DC50/Cyclin E1 DC50” value is above 937.
For the compound `CC(C)(O)COc1c(COC(=O)Nc2ccc(Oc3ccccc3)cc2)ccc2c1C(=O)N(C1CCC(=O)NC1=O)C2` (centres unmarked) [Example 160, [2-(2,6-dioxopiperidin-3-yl)-4-(2-hydroxy-2-methylpropoxy)-3-oxo-2,3-dihydro-1H-isoindol-5-yl]methyl N-(4-phenoxyphenyl)carbamate], in the test on Phospho-Rb (Ser807/811), inhibition was half-maximal at 131 nM (IC50) and the Emax turned out to be 145%. Also, at GSPT1, the DC50 is above 14 µM and the Dmax was 16%. Besides, on Cyclin E1, the DC50 amounted to 23 nM, the Dmax worked out at 98% and the “Ratio of GSPT1 DC50/Cyclin E1 DC50” value is above 615.
As for `CC(C)(O)COc1c(COC(=O)Nc2ccc(Oc3ccc(F)c(F)c3)cc2F)ccc2c1C(=O)N(C1CCC(=O)NC1=O)C2` (centres unmarked) [Example 161, [2-(2,6-dioxopiperidin-3-yl)-4-(2-hydroxy-2-methylpropoxy)-3-oxo-2,3-dihydro-1H-isoindol-5-yl]methyl N-[4-(3,4-difluorophenoxy)-2-fluorophenyl]carbamate], in the test on Phospho-Rb (Ser807/811), the IC50 was found to be 37 nM and the Emax was 129%. In addition, at GSPT1, the DC50 was above 14 µM and the Dmax stood at 10%. Besides, at Cyclin E1, it took 62 nM to reach half-maximal degradation (DC50), the Dmax is 102% and the “Ratio of GSPT1 DC50/Cyclin E1 DC50” value was above 225.
With `CC(C)(O)COc1c(COC(=O)Nc2ccc(Oc3ccc(F)cc3)cc2F)ccc2c1C(=O)N(C1CCC(=O)NC1=O)C2` (centres unmarked) [Example 162, [2-(2,6-dioxopiperidin-3-yl)-4-(2-hydroxy-2-methylpropoxy)-3-oxo-2,3-dihydro-1H-isoindol-5-yl]methyl N-[2-fluoro-4-(4-fluorophenoxy)phenyl]carbamate], in the test with Phospho-Rb (Ser807/811), half-maximal inhibition (IC50) was put at 24 nM and the Emax came to 133%. In addition, on GSPT1, the DC50 was above 14 µM and the Dmax amounted to 8%. In addition, on Cyclin E1, the DC50 came to 27 nM, the Dmax stood at 107% and the “Ratio of GSPT1 DC50/Cyclin E1 DC50” value is listed as above 521.
In the case of `CC(C)(O)COc1c(COC(=O)Nc2ccc(Oc3ccc(F)cc3F)cc2F)ccc2c1C(=O)N(C1CCC(=O)NC1=O)C2` (centres unmarked) [Example 163, [2-(2,6-dioxopiperidin-3-yl)-4-(2-hydroxy-2-methylpropoxy)-3-oxo-2,3-dihydro-1H-isoindol-5-yl]methyl N-[4-(2,4-difluorophenoxy)-2-fluorophenyl]carbamate], in the test on Phospho-Rb (Ser807/811), inhibition was half-maximal at 112 nM (IC50) and the Emax came out at 137%. At GSPT1, the half-maximal degradation concentration (DC50) was above 14 µM and the Dmax was determined as 7%. For the same compound, at Cyclin E1, the 50% degradation concentration (DC50) is 15 nM, the Dmax worked out at 110% and the “Ratio of GSPT1 DC50/Cyclin E1 DC50” value is above 921.
For `CC(C)(O)COc1c(COC(=O)Nc2ccc(Oc3cc(F)cc(F)c3)cc2F)ccc2c1C(=O)N(C1CCC(=O)NC1=O)C2` (centres unmarked) [Example 164, [2-(2,6-dioxopiperidin-3-yl)-4-(2-hydroxy-2-methylpropoxy)-3-oxo-2,3-dihydro-1H-isoindol-5-yl]methyl N-[4-(3,5-difluorophenoxy)-2-fluorophenyl]carbamate], in the test with Phospho-Rb (Ser807/811), the IC50 was 25 nM and the Emax was 142%. For the same compound, at GSPT1, the DC50 was above 14 µM and the Dmax came to 2%. On Cyclin E1, the DC50 was 75 nM, the Dmax came to 118% and the “Ratio of GSPT1 DC50/Cyclin E1 DC50” value is on record as above 187.
